# Test results: paper PMC7782499, “Progerinin, an optimized progerin-lamin A binding inhibitor, ameliorates premature senescence phenotypes of Hutchinson-Gilford progeria syndrome” (Communications Biology, 2021)
# Several values for one entry are separate records, joined by “and”; a condition that tells them apart may be missing. Equal values may be shown once.
# Test system: Lmna G609G/+ mouse
# Test: Body weight of Lmna G609G/+ mice
# Format: in vivo
# Conditions: for Lmna G609G/+ body weight, Ave: group average; for Lmna G609G/+ body weight: individual mouse
# Excerpt: Fig. 3 In vivo favorable effect of SLC-D011. A Gross morphology of Lmna^G609G/G609G mice (10 weeks old) was ameliorated after injection with SLC-D011. At the same age, the experimental group (D011) of mice were larger than vehicle-injected control (Con) subjects regardless of gender. B, C SLC-D011 increases body weight B and extends life span C of Lmna^G609G/G609G progeria model mouse (Con: n = 8; SLC-D011: n = 8). Compared with 14.8 weeks of average (ave) life span with maximum (max) life span of 15.5 weeks, 20 mg/kg of intraperitoneal (i.p) injection (twice a week) of SLC-D011 could extend the life span upto 19 weeks (max = 21 weeks). Lmna^G609G/G609G mice were injected with SLC-D011 from age of 5-week old, *p < 0.05. D Gross morphology of SLC-D011 injected Lmna^G609G/+ mouse. […] E SLC-D011 increases body weights of Lmna^G609G/+ mice (Con: n = 10; SLC-D011: n = 11), *p < 0.05. F Favorable effect of SLC-D011 on life span of Lmna^G609G/+ mice. Compared with vehicle-injected control group (ave = 46.7 weeks and max = 48 weeks), SLC-D011 treatment obviously extended the average life span to 63 weeks (max = 64 weeks). The injection was started from 32 weeks old, **p < 0.001. “Con” means vehicle (a solvent composed of DMSO and PBS)-injected mouse group. TEXT PRINTED IN THE PICTURE: (C) D011: Kaplan-Meier survival curve in Lmna^G609G/G609G: Ave=19; Kaplan-Meier survival curve in Lmna^G609G/G609G: Max=21 | (F) D011: Kaplan-Meier survival curve in Lmna^G609G/+: Ave=63; Kaplan-Meier survival curve in Lmna^G609G/+: Max=64 DOUBTS OF THE COPYIST ABOUT THIS PICTURE: Panels C and F: the Ave/Max labels are not printed with a group name. They are assigned to D011 (solid curve) or Con (dashed curve) only by their position beside the curves. / Panel C Ave=14.8, Max=15.5 and panel F Ave=46.7, Max=48 stand beside the dashed Con curve. They are left out because Con is the control group, not a substance. / No unit is printed with the Ave/Max values. Only the axis reads Age (weeks).
# Animal experiments were performed in a facility certified by the Association for Assessment and Accreditation of Laboratory Animal Care in compliance with animal policies approved by Pusan National University. The mouse work was performed under the study protocol PNU-2019-2181, as approved by the Institutional Animal Care and Use Committee. Lmna^G609G/609G mice were generated by timed mating of heterozygous Lmna^G609G/+ provided by Carlos López-Otín (Universidad de Oviedo, Asturias, Oviedo, Spain). SLC-D011 was mixed with dimethyl sulfoxide (DMSO) and phosphate-buffered saline (PBS). It was then intraperitoneally injected into mice (20 mg/kg twice per week from 5-week-old). SLC-D011 and lonafarnib were orally administrated to mice daily at a concentration of 10 mg/ml in monoolein-based solution. Lonafarnib was generously provided by Merck, the Progeria Research Foundation (PRF) and the PRF Lonafarnib Pre-clinical Drug Supply Program. Control mice were treated with monoolein-based solution alone in the same way. Lmna^G609G/609G mice were treated with clear chemical solution throughout the life span, starting from 5 weeks of age. Lmna^G609G/+ mice were treated via intraperitoneal and oral administrations, starting from 32 weeks of age.
# Fig. S10. Or al administration of SLC-D011 suppresses premature aging features of LmnaG609G/+ mi c e . A.
# Gross morphology of SLC-D011 treated Lmna G609G/+ mice at 36 weeks old. B. Oral administration of SLC-
# D011 increases body weight s of LmnaG609G/+ mi c e (untreated: n=11; SLC-D011: n=12), * p<0.05. C. […]
# intensity of H3K9me3 levels in lung, liver, and kidney tissues of age-matched Lmn a +/+ mouse, untreated
# LamnG609G/+ mouse and two progerinin- treated LmnaG609G/+ mice (n = 2 independent experiments; one
# Student’s t -test), **p < 0.001,*p< 0.05, N.S: not significant .AU, arbitrary units.
# Fig. S12. […] A. SLC-D011, compar ed to lonafarnib, reduces […]
# [1] = column after week 64 (head empty), IP injection with SLC-D011, ratio to week 32
# [2] = week 32, IP injection with SLC-D011, ratio to week 32
# [3] = week 33, IP injection with SLC-D011, ratio to week 32
# [4] = week 34, IP injection with SLC-D011, ratio to week 32
# [5] = week 35, IP injection with SLC-D011, ratio to week 32
# [6] = week 36, IP injection with SLC-D011, ratio to week 32
# [7] = week 37, IP injection with SLC-D011, ratio to week 32
# [8] = week 38, IP injection with SLC-D011, ratio to week 32
# [9] = week 39, IP injection with SLC-D011, ratio to week 32
# [10] = week 40, IP injection with SLC-D011, ratio to week 32
# [11] = week 41, IP injection with SLC-D011, ratio to week 32
# [12] = week 42, IP injection with SLC-D011, ratio to week 32
# [13] = week 43, IP injection with SLC-D011, ratio to week 32
# [14] = week 44, IP injection with SLC-D011, ratio to week 32
# [15] = week 45, IP injection with SLC-D011, ratio to week 32
# [16] = week 46, IP injection with SLC-D011, ratio to week 32
# [17] = week 47, IP injection with SLC-D011, ratio to week 32
# [18] = week 48, IP injection with SLC-D011, ratio to week 32
# [19] = week 49, IP injection with SLC-D011, ratio to week 32
# [20] = week 50, IP injection with SLC-D011, ratio to week 32
# [21] = week 51, IP injection with SLC-D011, ratio to week 32
# [22] = week 52, IP injection with SLC-D011, ratio to week 32
# [23] = week 53, IP injection with SLC-D011, ratio to week 32
# [24] = week 54, IP injection with SLC-D011, ratio to week 32
# [25] = week 55, IP injection with SLC-D011, ratio to week 32
# [26] = week 56, IP injection with SLC-D011, ratio to week 32
# [27] = week 57, IP injection with SLC-D011, ratio to week 32
# [28] = week 58, IP injection with SLC-D011, ratio to week 32
# [29] = week 59, IP injection with SLC-D011, ratio to week 32
# [30] = week 60, IP injection with SLC-D011, ratio to week 32
# [31] = week 61, IP injection with SLC-D011, ratio to week 32
# [32] = week 62, IP injection with SLC-D011, ratio to week 32
# [33] = week 63, IP injection with SLC-D011, ratio to week 32
# [34] = week 64, IP injection with SLC-D011, ratio to week 32
structure (smiles),measurement,setting,value
CC1(C)Oc2cc3oc(=O)ccc3cc2C[C@@H]1OC/C=C/c1ccccc1 [SLC-D011],"Lmna G609G/+ body weight, Ave",[1],0
same,Lmna G609G/+ body weight,[1],0
same,"Lmna G609G/+ body weight, Ave","oral administration, week 36, relative body weight",1
same,"Lmna G609G/+ body weight, Ave","oral administration, week 38, relative body weight",1.017
same,"Lmna G609G/+ body weight, Ave","oral administration, week 40, relative body weight",1.063
same,"Lmna G609G/+ body weight, Ave","oral administration, week 42, relative body weight",0.9995
same,"Lmna G609G/+ body weight, Ave","oral administration, week 44, relative body weight",0.9298
same,"Lmna G609G/+ body weight, Ave","oral administration, week 46, relative body weight",0.9013
same,"Lmna G609G/+ body weight, Ave","oral administration, week 48, relative body weight",0.862
same,"Lmna G609G/+ body weight, Ave","oral administration, week 50, relative body weight",0.8331
same,"Lmna G609G/+ body weight, Ave","oral administration, week 52, relative body weight",0.7877
same,"Lmna G609G/+ body weight, Ave","oral administration, week 54, relative body weight",0.7841
same,"Lmna G609G/+ body weight, Ave","oral administration, week 56, relative body weight",0.7247
same,"Lmna G609G/+ body weight, Ave","oral administration, week 58, relative body weight",0.7038
same,"Lmna G609G/+ body weight, Ave","oral administration, week 60, relative body weight",0.6602
same,"Lmna G609G/+ body weight, Ave","oral administration, week 62, relative body weight",0.5992
same,"Lmna G609G/+ body weight, Ave","oral administration, week 64, relative body weight",0.3905
same,"Lmna G609G/+ body weight, Ave","oral administration, week 66, relative body weight",0
same,"Lmna G609G/+ body weight, Ave",[2],1
same,Lmna G609G/+ body weight,[2],1
same,"Lmna G609G/+ body weight, Ave",[3],1.01
same,Lmna G609G/+ body weight,[3],1 and 1.038
same,"Lmna G609G/+ body weight, Ave",[4],1.003
same,Lmna G609G/+ body weight,[4],1 and 0.9583 and 1.038
same,"Lmna G609G/+ body weight, Ave",[5],0.9948
same,Lmna G609G/+ body weight,[5],1 and 0.9167 and 1.038
same,"Lmna G609G/+ body weight, Ave",[6],0.9886
same,Lmna G609G/+ body weight,[6],1 and 0.9583
same,"Lmna G609G/+ body weight, Ave",[7],0.9733
same,Lmna G609G/+ body weight,[7],1 and 0.9167
same,"Lmna G609G/+ body weight, Ave",[8],0.9619
same,Lmna G609G/+ body weight,[8],0.9565 and 0.9167 and 1
same,"Lmna G609G/+ body weight, Ave",[9],0.9549
same,Lmna G609G/+ body weight,[9],0.9565 and 0.9167 and 0.9615
same,"Lmna G609G/+ body weight, Ave",[10],0.925
same,Lmna G609G/+ body weight,[10],0.913 and 0.875 and 0.9615 and 0.963
same,"Lmna G609G/+ body weight, Ave",[11],0.925
same,Lmna G609G/+ body weight,[11],0.913 and 0.875 and 0.9615 and 0.963
same,"Lmna G609G/+ body weight, Ave",[12],0.9069
same,Lmna G609G/+ body weight,[12],0.913 and 0.8333 and 0.9231 and 0.963
same,"Lmna G609G/+ body weight, Ave",[13],0.9077
same,Lmna G609G/+ body weight,[13],0.913 and 0.875 and 0.9231 and 0.9259
same,"Lmna G609G/+ body weight, Ave",[14],0.8732
same,Lmna G609G/+ body weight,[14],0.8696 and 0.7917 and 0.9231 and 0.9259
same,"Lmna G609G/+ body weight, Ave",[15],0.8778
same,Lmna G609G/+ body weight,[15],0.8696 and 0.8333 and 0.9231 and 0.8889
same,"Lmna G609G/+ body weight, Ave",[16],0.8769
same,Lmna G609G/+ body weight,[16],0.8696 and 0.7917 and 0.9615 and 0.8889
same,"Lmna G609G/+ body weight, Ave",[17],0.8478
same,Lmna G609G/+ body weight,[17],0.8261 and 0.7917 and 0.9231 and 0.8519
same,"Lmna G609G/+ body weight, Ave",[18],0.8359
same,Lmna G609G/+ body weight,[18],0.8261 and 0.75 and 0.9231 and 0.8519
same,"Lmna G609G/+ body weight, Ave",[19],0.8036
same,Lmna G609G/+ body weight,[19],0.7826 and 0.75 and 0.8846 and 0.7778
same,"Lmna G609G/+ body weight, Ave",[20],0.8111
same,Lmna G609G/+ body weight,[20],0.7826 and 0.7917 and 0.8846 and 0.7778
same,"Lmna G609G/+ body weight, Ave",[21],0.8111
same,Lmna G609G/+ body weight,[21],0.7826 and 0.7917 and 0.8846 and 0.7778
same,"Lmna G609G/+ body weight, Ave",[22],0.7901
same,Lmna G609G/+ body weight,[22],0.7826 and 0.75 and 0.8462
same,"Lmna G609G/+ body weight, Ave",[23],0.7931
same,Lmna G609G/+ body weight,[23],0.7826 and 0.7917 and 0.8462
same,"Lmna G609G/+ body weight, Ave",[24],0.7747
same,Lmna G609G/+ body weight,[24],0.7391 and 0.7917 and 0.8077
same,"Lmna G609G/+ body weight, Ave",[25],0.7712
same,Lmna G609G/+ body weight,[25],0.7391 and 0.7917 and 0.8077
same,"Lmna G609G/+ body weight, Ave",[26],0.7636
same,Lmna G609G/+ body weight,[26],0.7391 and 0.75 and 0.8077
same,"Lmna G609G/+ body weight, Ave",[27],0.7611
same,Lmna G609G/+ body weight,[27],0.7391 and 0.75 and 0.8077
same,"Lmna G609G/+ body weight, Ave",[28],0.746
same,Lmna G609G/+ body weight,[28],0.6957 and 0.6667 and 0.8077
same,"Lmna G609G/+ body weight, Ave",[29],0.6892
same,Lmna G609G/+ body weight,[29],0.7391 and 0 and 0.8077
same,"Lmna G609G/+ body weight, Ave",[30],0.6894
same,Lmna G609G/+ body weight,[30],0.6957 and 0.7692
same,"Lmna G609G/+ body weight, Ave",[31],0.6156
same,Lmna G609G/+ body weight,[31],0.6087 and 0.7692
same,"Lmna G609G/+ body weight, Ave",[32],0.5947
same,Lmna G609G/+ body weight,[32],0 and 0.6923
same,"Lmna G609G/+ body weight, Ave",[33],0.5548
same,Lmna G609G/+ body weight,[33],0.6923
same,"Lmna G609G/+ body weight, Ave",[34],0.2637
same,Lmna G609G/+ body weight,[34],0.6154
